Legend:
[1] = target: 5HT2A (Homo sapiens, UniProt P28223); test: Receptor Selection and Amplification (R-SAT) functional assay; format: cell-based; design: expressed in transfected cells; host or cells: NIH3T3 cells, pSI mammalian expression vector; details: NIH3T3 cells; Ki from IC50 by Cheng and Prussoff; read-out: 5-HT2a (pKi) (R-SAT) (converted)
Description: Receptor Selection and Amplification (R-SAT) Assays. […] The IC50 determined in the RSAT assay was converted into a Ki value using the method of Cheng and Prussoff, Biochem Pharmacol., 1973 Dec. 1; 22(23):3099-108. pKi is the negative of the log(Ki).

[2] = target: hERG potassium channel (Homo sapiens, UniProt Q12809); test: hERG manual patch clamp, HEK293 cells (CR-CLE)
hERG potassium channel, sequence (Q12809 whole entry): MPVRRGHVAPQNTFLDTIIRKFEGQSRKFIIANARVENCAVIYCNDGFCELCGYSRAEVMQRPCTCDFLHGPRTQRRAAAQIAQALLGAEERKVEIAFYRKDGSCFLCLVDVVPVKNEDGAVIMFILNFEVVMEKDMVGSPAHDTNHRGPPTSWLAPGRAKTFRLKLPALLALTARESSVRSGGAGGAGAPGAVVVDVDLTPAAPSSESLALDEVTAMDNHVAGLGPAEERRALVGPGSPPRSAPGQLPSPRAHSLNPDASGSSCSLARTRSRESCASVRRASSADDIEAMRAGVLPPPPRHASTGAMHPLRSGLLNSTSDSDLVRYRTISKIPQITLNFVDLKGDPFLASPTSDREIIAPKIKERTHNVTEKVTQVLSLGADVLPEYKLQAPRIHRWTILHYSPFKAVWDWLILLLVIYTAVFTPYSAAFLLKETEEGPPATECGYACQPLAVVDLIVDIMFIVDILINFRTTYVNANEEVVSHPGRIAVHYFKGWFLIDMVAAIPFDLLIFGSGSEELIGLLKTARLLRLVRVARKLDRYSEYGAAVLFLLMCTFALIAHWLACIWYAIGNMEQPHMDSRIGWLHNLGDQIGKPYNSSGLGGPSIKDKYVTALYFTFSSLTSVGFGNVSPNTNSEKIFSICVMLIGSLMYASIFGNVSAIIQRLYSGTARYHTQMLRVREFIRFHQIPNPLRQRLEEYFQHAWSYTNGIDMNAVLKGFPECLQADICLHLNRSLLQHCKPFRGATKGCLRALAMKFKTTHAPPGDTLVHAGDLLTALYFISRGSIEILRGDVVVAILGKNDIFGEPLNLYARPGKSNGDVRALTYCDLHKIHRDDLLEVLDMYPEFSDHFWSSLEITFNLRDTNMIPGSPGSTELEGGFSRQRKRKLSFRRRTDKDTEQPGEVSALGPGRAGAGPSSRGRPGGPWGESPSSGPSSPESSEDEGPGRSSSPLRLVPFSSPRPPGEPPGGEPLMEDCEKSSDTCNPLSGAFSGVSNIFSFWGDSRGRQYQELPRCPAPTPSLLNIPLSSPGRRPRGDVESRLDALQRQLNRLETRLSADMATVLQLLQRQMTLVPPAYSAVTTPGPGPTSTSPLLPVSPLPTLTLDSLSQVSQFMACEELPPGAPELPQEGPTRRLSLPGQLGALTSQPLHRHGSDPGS
Description: Each cell acted as its own control.
Temperature was measured using a thermistor probe in the recording chamber.

[3] = target: hCav1.2/β2/α2δ channels (Homo sapiens, UniProt Q13936); test: CaV1.2 manual patch clamp, CHO cells (CR-CLE); format: cell-based; details: manual patch clamp, room temperature, read-out: CaV 1.2 IC50
hCav1.2/β2/α2δ channels, sequence (Q13936 whole entry): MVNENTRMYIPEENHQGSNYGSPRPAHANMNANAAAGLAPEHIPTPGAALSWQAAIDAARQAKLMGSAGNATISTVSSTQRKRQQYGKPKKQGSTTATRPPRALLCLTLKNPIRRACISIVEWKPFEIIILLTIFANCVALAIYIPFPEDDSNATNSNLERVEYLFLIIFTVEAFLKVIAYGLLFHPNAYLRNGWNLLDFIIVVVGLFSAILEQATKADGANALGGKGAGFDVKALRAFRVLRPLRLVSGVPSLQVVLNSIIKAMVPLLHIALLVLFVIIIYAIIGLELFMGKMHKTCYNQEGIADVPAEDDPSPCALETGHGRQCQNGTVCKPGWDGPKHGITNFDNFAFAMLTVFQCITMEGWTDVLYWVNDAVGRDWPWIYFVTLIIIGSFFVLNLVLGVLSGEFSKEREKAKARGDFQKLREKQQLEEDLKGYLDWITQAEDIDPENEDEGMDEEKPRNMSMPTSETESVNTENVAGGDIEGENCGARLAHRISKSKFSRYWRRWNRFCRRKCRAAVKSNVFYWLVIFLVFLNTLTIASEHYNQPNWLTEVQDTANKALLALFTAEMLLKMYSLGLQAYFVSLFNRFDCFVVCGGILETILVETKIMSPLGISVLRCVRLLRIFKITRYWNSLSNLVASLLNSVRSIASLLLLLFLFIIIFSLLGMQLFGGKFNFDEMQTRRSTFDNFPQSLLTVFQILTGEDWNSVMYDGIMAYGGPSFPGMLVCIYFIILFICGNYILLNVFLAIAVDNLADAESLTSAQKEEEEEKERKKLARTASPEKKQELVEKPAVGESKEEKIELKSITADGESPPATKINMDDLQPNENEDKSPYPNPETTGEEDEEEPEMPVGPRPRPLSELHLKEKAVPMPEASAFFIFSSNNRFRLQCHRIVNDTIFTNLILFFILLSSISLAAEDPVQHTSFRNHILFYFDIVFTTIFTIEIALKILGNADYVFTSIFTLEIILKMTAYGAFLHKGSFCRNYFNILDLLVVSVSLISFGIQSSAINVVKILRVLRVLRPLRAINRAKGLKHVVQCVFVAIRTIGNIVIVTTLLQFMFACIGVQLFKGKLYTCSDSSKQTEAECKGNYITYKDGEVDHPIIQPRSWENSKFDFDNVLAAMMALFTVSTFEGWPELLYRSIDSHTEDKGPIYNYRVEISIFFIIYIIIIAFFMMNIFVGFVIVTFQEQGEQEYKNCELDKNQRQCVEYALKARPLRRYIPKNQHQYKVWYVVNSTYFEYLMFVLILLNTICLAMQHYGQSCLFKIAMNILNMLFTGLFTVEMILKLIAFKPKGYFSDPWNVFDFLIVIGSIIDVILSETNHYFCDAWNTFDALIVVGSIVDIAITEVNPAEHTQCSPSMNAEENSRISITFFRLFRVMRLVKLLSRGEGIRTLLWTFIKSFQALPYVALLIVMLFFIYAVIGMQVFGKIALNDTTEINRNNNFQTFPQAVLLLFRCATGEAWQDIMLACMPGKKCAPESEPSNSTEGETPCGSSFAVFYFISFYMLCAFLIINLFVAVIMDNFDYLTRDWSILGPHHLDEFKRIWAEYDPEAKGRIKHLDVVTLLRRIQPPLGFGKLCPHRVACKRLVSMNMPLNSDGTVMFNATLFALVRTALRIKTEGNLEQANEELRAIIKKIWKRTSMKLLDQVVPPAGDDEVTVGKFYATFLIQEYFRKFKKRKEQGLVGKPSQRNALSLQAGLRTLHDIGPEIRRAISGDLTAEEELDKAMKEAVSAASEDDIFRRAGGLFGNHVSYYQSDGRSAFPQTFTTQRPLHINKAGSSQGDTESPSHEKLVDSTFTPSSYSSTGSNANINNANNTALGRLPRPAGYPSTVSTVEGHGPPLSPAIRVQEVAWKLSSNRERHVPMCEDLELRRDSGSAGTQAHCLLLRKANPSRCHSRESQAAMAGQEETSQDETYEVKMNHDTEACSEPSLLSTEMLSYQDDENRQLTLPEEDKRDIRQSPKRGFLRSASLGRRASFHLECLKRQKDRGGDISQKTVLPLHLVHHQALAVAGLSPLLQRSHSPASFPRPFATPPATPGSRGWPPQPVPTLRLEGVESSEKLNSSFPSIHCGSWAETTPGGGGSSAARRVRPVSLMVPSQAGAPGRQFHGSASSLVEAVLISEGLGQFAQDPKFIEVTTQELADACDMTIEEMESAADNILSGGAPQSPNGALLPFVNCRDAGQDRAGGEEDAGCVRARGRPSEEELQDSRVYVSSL
hCav1.2/β2/α2δ channels, sequence (Q08289 whole entry partner): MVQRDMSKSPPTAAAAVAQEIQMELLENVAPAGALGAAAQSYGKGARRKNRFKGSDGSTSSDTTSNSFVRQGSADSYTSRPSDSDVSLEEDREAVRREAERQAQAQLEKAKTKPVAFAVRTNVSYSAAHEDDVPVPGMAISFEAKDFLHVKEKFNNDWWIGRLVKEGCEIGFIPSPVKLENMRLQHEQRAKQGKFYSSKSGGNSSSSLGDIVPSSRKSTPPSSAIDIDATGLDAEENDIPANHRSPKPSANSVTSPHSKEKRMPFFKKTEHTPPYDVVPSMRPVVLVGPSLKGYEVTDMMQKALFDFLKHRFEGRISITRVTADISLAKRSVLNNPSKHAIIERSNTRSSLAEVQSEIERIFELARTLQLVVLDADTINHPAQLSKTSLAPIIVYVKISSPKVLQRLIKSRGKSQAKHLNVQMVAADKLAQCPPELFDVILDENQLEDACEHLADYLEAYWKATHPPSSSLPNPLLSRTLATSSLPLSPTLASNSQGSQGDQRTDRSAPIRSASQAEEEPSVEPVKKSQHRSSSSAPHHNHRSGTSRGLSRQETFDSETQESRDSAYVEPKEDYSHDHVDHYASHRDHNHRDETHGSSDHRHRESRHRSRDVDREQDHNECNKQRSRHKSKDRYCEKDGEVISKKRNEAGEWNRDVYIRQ
hCav1.2/β2/α2δ channels, sequence (P54289 25-956 partner limits assumed): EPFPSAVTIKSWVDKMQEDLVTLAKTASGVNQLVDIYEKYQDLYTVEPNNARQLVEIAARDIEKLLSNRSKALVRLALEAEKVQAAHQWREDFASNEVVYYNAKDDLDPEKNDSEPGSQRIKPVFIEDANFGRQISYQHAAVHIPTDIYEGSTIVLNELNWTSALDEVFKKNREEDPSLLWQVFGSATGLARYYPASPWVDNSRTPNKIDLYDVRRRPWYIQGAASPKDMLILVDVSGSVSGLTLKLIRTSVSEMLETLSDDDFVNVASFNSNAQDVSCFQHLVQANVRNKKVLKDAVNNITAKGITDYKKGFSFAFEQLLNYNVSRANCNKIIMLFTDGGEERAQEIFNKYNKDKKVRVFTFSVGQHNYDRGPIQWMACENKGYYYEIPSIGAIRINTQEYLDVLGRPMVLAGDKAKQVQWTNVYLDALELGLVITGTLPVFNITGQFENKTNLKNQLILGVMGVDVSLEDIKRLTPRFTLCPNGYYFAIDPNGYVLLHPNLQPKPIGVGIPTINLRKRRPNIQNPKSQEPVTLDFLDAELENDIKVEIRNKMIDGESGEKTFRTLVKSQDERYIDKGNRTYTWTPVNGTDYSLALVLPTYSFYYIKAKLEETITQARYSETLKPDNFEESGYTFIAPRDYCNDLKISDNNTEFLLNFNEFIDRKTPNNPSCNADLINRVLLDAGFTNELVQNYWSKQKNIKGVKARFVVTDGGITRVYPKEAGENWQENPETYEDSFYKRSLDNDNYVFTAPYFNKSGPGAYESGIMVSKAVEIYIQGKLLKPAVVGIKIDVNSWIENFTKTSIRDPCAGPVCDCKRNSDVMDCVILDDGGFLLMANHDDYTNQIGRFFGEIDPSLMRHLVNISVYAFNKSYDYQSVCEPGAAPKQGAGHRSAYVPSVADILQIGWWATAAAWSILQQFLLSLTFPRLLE
hCav1.2/β2/α2δ channels, sequence (P54289 957-1103 partner limits assumed): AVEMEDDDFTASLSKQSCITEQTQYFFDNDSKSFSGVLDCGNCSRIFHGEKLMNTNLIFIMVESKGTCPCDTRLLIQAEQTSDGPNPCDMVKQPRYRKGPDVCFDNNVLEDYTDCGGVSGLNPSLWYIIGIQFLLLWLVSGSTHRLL
Description: Stocks were maintained in cryogenic storage. […] Each culture dish was identified by a notation of channel name, passage number, and date.
Rationale for Selection of Ion Channel and Expression Systems: Reduction of ICa,L is associated with action potential shortening in atrial fibrillation (Van Wagoner, et al., Circ Res 85:428-436 (1999)) while augmentation of ICa,L current may produce action potential prolongation (Ahmmed, et al., Circ Res 86:558-570 (2000)) and early after depolarizations (January, et al., Circ Res 62:563-571 (1988)). ICa.L is produced by the combination of calcium channel subunits encoded by CACNA1C (α1-subunit), CACNB2 (β2-subunit) and CACNA2D1 (α2δ-subunit) cDNAs.
• Organism: Cricetulus griseus • Tissue: Ovary; transfected with human CACNA1C • (α1-subunit), CACNB2 (β2-subunit), and • CACNA2D1 (α2δ-subunit) cDNAs • Morphology: Epithelial • Age/Stage: Adult • Source Strain: ATCC, Manassas, VA • Source Substrain: CR-CLE
CHO Cell Culture Procedures: CHO cells were stably co-transfected with human CACNA1C (α1-subunit), CACNB2 (β2-subunit), and CACNA2D1 (α2δ-subunit) cDNAs. Stable transfectants were selected by coexpression of the cDNAs with antibiotic resistance genes for blasticidin, hygromycin, G418, and zeocin. Selection pressure was maintained by including these antibiotics in the culture medium. Cells were cultured in Ham's F12 Medium supplemented with 10% fetal bovine serum, penicillin-streptomycin (100 units/mL), blasticidin (10 μg/mL), zeocin (400 μg/mL), G418 (250 μg/mL) and hygromycin (250 μg/mL). To avoid Ca^2+-induced toxicity, verapamil (3 μmol/L) was added to the cultured cells.
hCav1.2/β2/α2δ-CHO is a tetracycline-inducible cell line. To induce expression, tetracycline at a final concentration of 1 μg/mL was added to media lacking the selection antibiotics. Currents were recorded greater than 16 hours post-induction.
Treatment Groups: All experiments were performed at room temperature. Each cell acted as its own control.
Each concentration was tested in at least three cells (n≥3).
Positive Control Group: The positive control article nifedipine (Sigma-Aldrich) was tested in two cells (n=2) at 0.1 μM. Previous results have shown that nifedipine at 0.1 μM inhibits hCav1.2 current by approximately 90%.
Electrophysiological Procedures: Cells were superfused with vehicle control solution. Micropipette solution for whole cell patch clamp recordings was composed of (mM): Cs-methanesulfonate (MES), 130; TEA-Cl, 20, MgCl2, 1; EGTA, 10; Mg-ATP, 4; Tris-GTP, 0.3, phosphocreatine di-(Tris) salt, 14, creatine phosphokinase, 50 U/mL, and HEPES, 10; pH adjusted to 7.2 with N-methyl-D-glucamine or CsOH. Micropipette solution was prepared in batches, aliquoted, stored frozen, and a fresh aliquot thawed each day. […] Before digitization, current records were low-pass filtered at one-fifth of the sampling frequency.
Experimental Procedures: Onset and steady inhibition was evaluated at a test potential of 0 mV (150 ms duration), repeated at ten-second intervals from a holding potential of −40 mV. Peak current was measured during the step to 0 mV. Peak current was monitored until a new steady state was achieved. hCav1.2 current was monitored until a new steady state was achieved and a steady state was maintained for at least 20 s before applying test article or positive control article formulations. […]
Nonlinear least squares fits were solved with the Solver add-in for Excel 2003 or later (Microsoft, Redmond, WA) and the IC50 was calculated.

CC(C)COc1ccc(CNC(=O)N(Cc2ccc(F)cc2F)C2CCN(C)CC2)cc1 [Example 3, 1-[(2,4-difluorophenyl)methyl]-1-(1-methylpiperidin-4-yl)-3-{[4-(2-methylpropoxy)phenyl]methyl}urea]
Ki [1]: 1.26 nM | IC50 [2]: 500 nM | IC50 [3]: 1400 nM

CC(C)Oc1ccc(CNC(=O)N(Cc2ccc(F)cc2F)C2CCN(C)CC2)cc1 [Example 5, 1-[(2,4-difluorophenyl)methyl]-1-(1-methylpiperidin-4-yl)-3-{[4-(propan-2-yloxy)phenyl]methyl}urea]
Ki [1]: 1 nM | IC50 [2]: 1800 nM | IC50 [3]: 11300 nM

CN1CCC(N(Cc2ccc(F)cc2F)C(=O)NCc2ccc(OC3CC3)cc2)CC1 [Example 17, 3-[(4-cyclopropoxyphenyl)methyl]-1-[(2,4-difluorophenyl)methyl]-1-(1-methylpiperidin-4-yl)urea]
Ki [1]: 0.398 nM | IC50 [2]: 1800 nM | IC50 [3]: 3500 nM

Source: patent US12139477B2, “Compounds, salts thereof and methods for treatment of diseases” (ACADIA PHARMACEUTICALS INC., priority 2017, dated 2024)
